Structures can show the parent of a compound that is named as a salt. Where two headings read alike, the source gives them in different places.
How the values were obtained:
[1] = Saturation solubility, shake-flask method, quantification by HPLC/UV; assay type: physicochemical; conditions: 0.01 N HCl, 37 °C, pH 2, simulated gastric fluid, thermodynamic from solid, 0.01 N HCl pH 2; 24 h at 37°C
[2] = Hygroscopicity of the drug substance; assay type: physicochemical
[3] = Saturation solubility, shake-flask method, quantification by HPLC/UV; assay type: physicochemical; conditions: for solubility at 24 h: 37 °C, thermodynamic from solid
Method: The saturation solubility of RhuDex® choline salt determined at 37°C after 24 hours by HPLC/UV using the shake-flask method is at around or below 0.001 mg/mL when using standard media or buffers such as 0.1 N hydrochloric acid pH 1.2 and 50 mM phosphate buffer pH 7.0 or biorelevant media such as Fasted-State Simulated Intestinal Fluid (i.e. FaSSIF) pH 6.5 and Fed-State Simulated Intestinal Fluid (FeSSIF) pH 5.0.
When increasing the pH value above the pKa and beyond the physiological conditions (i.e. pH > 8), the opposite effect occurs as the molecule is transferred into its negatively charged and soluble ion. […] However, these enabling technologies are neither standard nor easily applicable as they directly affect the physical properties of the drug substance and thereby its thermodynamic stability. Therefore, there is an extremely high risk of failure associated with these technologies concluding that the drug substance cannot be further developed into a suitable, stable, bioavailable and commercially viable formulation. Table 2: Saturation solubility of RhuDex® choline salt in biorelevant media (shake-flask method, 24 h at 37°C, quantification by HPLC/UV)

[4] = tested on: monolayers formed by human colon carcinoma cell line Caco-2; assay: Apparent permeation across Caco-2 cell monolayers; assay type: in vitro ADME; conditions: Caco-2 cell monolayers; 127 µg/ml
Method: (§1) The biorelevant dissolution profile of the embodiment positively affects the second relevant parameter predicting the compound's oral bioavailability, i.e. its permeability. As shown in apparent permeation studies across monolayers formed by human colon carcinoma cell line Caco-2 the spring and parachute effect observed for formulated RhuDex® choline salt also leads to a higher permeation rate when compared with its crystalline and unformulated counterpart. The permeation assays were performed using an apical buffer at a pH value of 7.0 and a basolateral buffer at a pH value of 7.4. The test concentration was set to 127 µg/ml and should represent a potential clinical dose of 31.75 mg RhuDex® choline salt administrered in a volume of 250 ml (i.e. 31.75 mg/250 ml = 0.127 mg/ml). With an apparent permeation value (Papp) of less than 1 (i.e. 0.12 x 10^-6 cm/s) the permeability of crystalline RhuDex® choline salt across Caco-2 cell monolayers must be classified as poor and a low bioavailability of unformulated drug substance can be estimated. However, the Papp value increased to 2.7 x 10^-6 cm/s when using an amorphous solid dispersion of RhuDex® choline salt in the same experiment indicating a remarkable shift from low to moderate permeability. This effect can be cleary attributed to the embodiment.

[5] = Apparent permeation across Caco-2 cell monolayers; assay type: in vitro ADME, human; conditions: human, Caco-2; apical buffer pH 7.0, basolateral buffer pH 7.4; test concentration 127 µg/ml
Method: as §1

[6] = Two-stage biorelevant in vitro dissolution test (acid stage pH 2.0, buffer stage pH 7.0, non-sink conditions); assay type: physicochemical
From the text: To characterize the in vitro performance of the gastro-resistant granules that contain the RhuDex® choline salt as an amorphous solid dispersion a predictive biorelevant dissolution method has been developed. The design of the method comprises a two-stage in vitro dissolution test that simulates the conditions of the gastrointestinal passage. In a first step the formulation is exposed to simulated gastric fluid where the enteric protection provided by the outer hypromellose succinate acetate layer should ensure that there is no premature drug substance release from the granules. The subsequent step simulates the condition of the upper intestine where the enteric polymer should immediately dissolve and where the drug substance release should start. The gastro-resistance and the release profile are measured by the amount of RhuDex® choline salt dissolved in the acid and buffer medium. The established test system relies on the use of standard media and buffer systems without the addition of any surfactants or bile acids. […] The extent of the spring and parachute effect should be measurable in the simulated intestinal fluid. The parameters of the biorelevant dissolution method are presented below. Summarizing the established conditions for testing the biorelevant dissolution of RhuDex® choline salt gastro-resistant granules, the studies are conducted under non-sink conditions as follows: […]

[7] = pKa value of the drug substance; assay type: physicochemical; conditions: free acid

| Compound | solubility at 24 h [1] | hygroscopicity [2] | biopharmaceutics classification system (BCS) class [3] | solubility at 24 h ([3]; 50 mM borate buffer, pH 9.5, aqueous buffer, 50 mM borate buffer, pH 9.5, read-out: solubility) | solubility at 24 h ([3]; 50 mM phosphate buffer, pH 7, aqueous buffer, Phosphate buffer 50 mM, pH 7.0, 24 h at 37°C, read-out: Saturation solubility) | solubility at 24 h ([3]; 50 mM phosphate buffer, pH 7, aqueous buffer, pH 7.0, read-out: solubility of the drug substance) | solubility at 24 h ([3]; aqueous buffer, 37°C, 24 hours, shake-flask, 0.1 N hydrochloric acid pH 1.2, 50 mM phosphate buffer pH 7.0, FaSSIF pH 6.5, FeSSIF pH 5.0, read-out: saturation solubility) | solubility at 24 h ([3]; FaSSIF, pH 6.5, fassif, FaSSIF, pH 6.5, 24 h at 37°C, read-out: Saturation solubility) | solubility at 24 h ([3]; FeSSIF, pH 5, fessif, FeSSIF, pH 5.0, 24 h at 37°C, read-out: Saturation solubility) | volume required to completely dissolve one dose ([3]; dose 31.75 mg, minimum solubility 0.001 mg/mL, physiologically relevant conditions) | solubility at 24 h ([3]; water, pH 9.9, water, in water, final pH value of the solution 9.9, read-out: solubility) | permeability classification [4] | Papp at 127 µg/ml [5] | amount in solution when presented in crystalline form ([6]; 0.001 mg/ml x 460 ml, buffer pH 7.0) | dose in solution when presented in crystalline form ([6]; calculated from solubility 0.001 mg/ml in 460 ml buffer pH 7.0, dose 31.75 mg) | pKa [7] |
| --- | --- | --- | --- | --- | --- | --- | --- | --- | --- | --- | --- | --- | --- | --- | --- | --- |
| O=C(NCC(F)F)c1ccc(-n2[nH]c3c(nnc4c(F)cccc43)c2=O)cc1 [RhuDex® choline salt, N-(2,2-difluoroethyl)-4-(6-fluoro-3-oxo-1,3-dihydropyrazolo[4,3-c]cinnolin-2-yl)-benzamide] | 0.1 µg/mL | only slightly hygroscopic | either Class II (low solubility/high permeability) or Class IV (low solubility/low permeability) | 1300 µg/mL | 0.7 µg/mL | ~1 µg/mL | ≤ 1 µg/mL | 1.1 µg/mL | 0.1 µg/mL | more than 30 L | ~10000 µg/mL | poor | 0.12 ×10⁻⁶ cm/s | 0.46 mg | 1.4% | – |
| O=C(NCC(F)F)c1ccc(-n2[nH]c3c(nnc4c(F)cccc43)c2=O)cc1 [RhuDex® free acid, 4-(6-fluoro-3-oxo-1,3-dihydro-pyrazolo[4,3-c]cinnolin-2-yl)-N-(2,2-difluoro-ethyl)-benzamide] | – | – | – | – | – | – | – | – | – | – | – | – | – | – | – | 5.8 |

Reference: patent publication EP4119128A1, “PHARMACEUTICAL COMPOSITION FOR THE ORAL ADMINISTRATION OF POORLY SOLUBLE DRUGS COMPRISING AN AMORPHOUS SOLID DISPERSION” (Dr. Falk Pharma GmbH, priority 2021, dated 2023)
